Experimental findings from US8388931B2, “99m Tc-labeled triphenylphosphonium derivative contrasting agents and molecular probes for early detection and imaging of breast tumors” (priority 2008, dated 2013) are described below.

Data set [1] can be described thus: Comparative study: myocardial and hepatic uptake of 99mTc-MIBI versus 99mTc-Mito10-MAG3. It is filed as in vivo, rats. Conditions: rat, in vivo. How it is done:
(§1) ^99mTc-MIBI of clinical formulation was purchased from Bristol Myers Squibb. […] Dynamic images were acquired in identical fashion following 99mTc-MIBI injection.
In a comparative study, the myocardial uptake of ^99mTc-MIBI peaked at 2.70±0.4% ID/g within minutes after injection, and remained above 2.41±0.3% ID/g for at least 90 min. Comparatively, the myocardial uptake level of ^99mTc-Mito10-MAG 3 is 10, 40, and 120 fold lower than the uptake level of ^99mTc-MIBI at 3, 10 and 30 min after injection. The hepatic uptake of ^99mTc-MIBI was at 0.37±0.14% ID/g at 30 min after injection.

The test system of data set [2] is DMBA-induced breast carcinoma. In words: In vivo gamma camera imaging of DMBA-induced breast carcinoma in rats. More on the design: species or system rats (female Sprague Dawley). Conditions: longitudinal experiment, at the time of detection. On the procedure:
The animal protocol was approved by institutional IACUC review and followed NIH guidelines. The rat model of DMBA-induced breast carcinoma was used.
As an initial feasibility study, rats were induced with 65 mg/kg DMBA dissolved in sesame oil via a single oral gavage to the stomach. […] Static images were acquired on a GE XRT gamma camera using a high-resolution parallel-hole collimator, 512×512 matrix size, 22.5×22.5 cm field of view, 140±15 keV energy window, 100 k counts. Unexpectedly, apart from the established palpable carcinomas, additional small (millimeter size) tumors were discovered by this imaging technique in the same animals. This finding promoted a longitudinal study to investigate the early detection of neoplastic growth using ^99mTc-Mito10-MAG3.
Six 48-day-old female rats were injected with 65 mg/kg DMBA. At each week after DMBA induction, the rats were imaged using the following protocol. Each rat was anesthetized with 1.6% isoflurane in room air supplemented with oxygen. […] Dynamic images were continuously acquired at one frame per min for 90 min using the imaging parameters set forth hereinabove. The weekly imaging regiment was continued for all six rats until palpable tumors became detectable, which typically takes place between seven to nine weeks after the administration of DMBA. Due to the relatively short physical half-life of ^99mTc (6 hr), no residual signal, therefore, no cross-contamination is detectable from the previous injection the week before.
as §1
The female Sprague Dawley rats have six pairs of mammary glands, among which glands a and b are away from the hepatic/gastrointestinal region. (FIG. 9, Panel A). Since the typical biodistribution of a lipophilic radiopharmaceutical in the abdominal region precludes reliable imaging of breast tissues below the diaphragm, mammary glands shown in Panels C, D, E and F were excluded from the data analysis. This exclusion also was based on the fact that such spatial distribution of mammary glands is irrelevant to that of the human anatomy.
Imaging data analysis was carried out using an inbuilt software, by carefully drawing a region of interest (ROI) on the tumor site to determine the radioactivity counts in the ROI. […] Radioactivity counts were determined in each ROI. Tumor-to-normal and tumor-to-muscle ratios were calculated as the count ratio between the two ROIs.
The rats were sacrificed by CO2 asphyxiation and the number and location of the mammary tumors were recorded at necropsy. The tumors were dissected, with the diameter and weight measured and documented. […]

In data set [1], `[99Tc].[C-]#[N+]CC(C)(C)OC.[C-]#[N+]CC(C)(C)OC.[C-]#[N+]CC(C)(C)OC.[C-]#[N+]CC(C)(C)OC.[C-]#[N+]CC(C)(C)OC.[C-]#[N+]CC(C)(C)OC` [^99mTc-MIBI, ^99mTc-methoxyisobutylisonitrile, reference compound] yielded a peak myocardial uptake of 2.70±0.4 % ID/g. Further, in data set [2] (ROI count ratio tumor vs contralateral normal mammary gland), the tumor-to-normal ratio stood at 2.04±0.49. Moreover, the tumor-to-muscle ratio in data set [2] (ROI count ratio tumor vs thigh muscle) is 5.10±0.31.
